In patent US9949970B2, “Synthesis of new benzothiazole derivatives as potential anti-tubercular agents” (priority 2010, dated 2018):

The compounds below were run on M. tuberculosis isolates and drug resistance strains.
Type: cell-based, Mycobacterium tuberculosis
“N2-(2-{[(E)-3-(4-chlorophenyl)-2-propenoyl]amino}-1,3-benzothiazol-6-yl)-5-nitro-2-furamide [Compound 6w]” was tested, and the “In vitro activity (result in words)” value was “good in vitro activity”. `O=C(Nc1nc2ccc(NC(=O)c3ccc([N+](=O)[O-])o3)cc2s1)c1ccc(Cl)cc1` [Compound 6g, N2-{2-[(4-chlorobenzoyl)amino]-1,3-benzothiazol-6-yl}-5-nitrofuramide] was tested, and the “In vitro activity (result in words)” value was “good in vitro activity”. With `O=C(NNc1nc2ccc(OC(F)(F)F)cc2s1)c1ccc([N+](=O)[O-])o1` [Compound 4e, N′2-(6-trifluoromethoxy-1,3-benzothiazol-2-yl)-5-nitro-2-furanecarbohydrazide] the “In vitro activity (result in words)” value was “good in vitro activity”. For `O=[N+]([O-])c1ccc(C=NNc2nc3ccc(OC(F)(F)F)cc3s2)s1` [Compound 3j, 5-nitro-2-thiophenecarbaldehyde 2-(6-trifluoromethoxy-1,3-benzothiazole-2-yl)hydrazone], the “In vitro activity (result in words)” value was “good in vitro activity”. `O=C(Nc1nc2ccc(NC(=O)c3ccc([N+](=O)[O-])o3)cc2s1)c1cnccn1` [Compound 6p, N2-(6-{[(5-nitro-2-furyl)carbonyl]amino}-1,3-benzothiazol-2-yl)-2-pyrazinecarboxamide] was tested, and the “In vitro activity (result in words)” value was “good in vitro activity”. In the case of `O=C(Nc1nc2ccc(NC(=O)c3ccc([N+](=O)[O-])o3)cc2s1)c1ccc(F)cc1` [Compound 6f, N2-{2-[(4-fluorobenzoyl)amino]-1,3-benzothiazol-6-yl}-5-nitrofuramide], the “In vitro activity (result in words)” value is reported as “good in vitro activity”. For `O=C(Nc1ccc2nc(NC(=O)c3ccc([N+](=O)[O-])o3)sc2c1)c1ccc([N+](=O)[O-])o1` [Compound 8a, N2-(2-{[(5-nitro-2-furyl)carbonyl]amino}-1,3-benzothiazol-6-yl}-5-nitro-2-furamide], the “In vitro activity (result in words)” value was “good in vitro activity”. With `O=C(Nc1ccc2nc(NC(=O)c3ccc(F)cc3F)sc2c1)c1ccc([N+](=O)[O-])o1` [Compound 6i, N2-{2-[(2,4-difluorobenzoyl)amino]-1,3-benzothiazol-6-yl}-5-nitrofuramide] the “In vitro activity (result in words)” value was “good in vitro activity”.
